# Experimental data: ChEMBL document CHEMBL2440050 (ACS Med Chem Lett, 2013)
# Tests used:
# HCT-116 [1] = assay: Ratio of IC50 for vinblastine-resistant human HCT116/VM46 cells overexpressing P-gp to IC50 for vinblastine-sensitive human HCT116 cells by phosphatase assay; format: functional
# HCT-116 [2] = assay: Ratio of vinblastine IC50 to compound IC50 for vinblastine-sensitive human HCT116 cells by phosphatase assay; format: functional
# HCT-116/VM46 [3] = assay: Ratio of vinblastine IC50 to compound IC50 for vinblastine-resistant human HCT116/VM46 cells overexpressing P-gp by phosphatase assay; format: functional
# L1210 [4] = assay: Ratio of vinblastine IC50 to compound IC50 for mouse L1210 cells by phosphatase assay; format: functional
# HCT-116 [5] = assay: Growth inhibition of vinblastine-sensitive human HCT116 cells after 72 hrs by phosphatase assay; format: functional, cell-based; settings: HCT-116, 72 h
# HCT-116/VM46 [6] = assay: Growth inhibition of vinblastine-resistant human HCT116/VM46 cells overexpressing P-gp after 72 hrs by phosphatase assay; format: functional, cell-based; settings: HCT-116/VM46, 72 h
# L1210 [7] = assay: Growth inhibition of mouse L1210 cells after 72 hrs by phosphatase assay; format: functional, cell-based; settings: L1210, 72 h
# HCT-116/VM46 [8] = assay: Ratio of vinblastine IC50 to compound IC50 for vinblastine-resistant human HCT116/VM46 cells overexpressing P-gp by MTS assay; format: functional
# PA-1 [9] = assay: Ratio of vinblastine IC50 to compound IC50 for human PA1 cells by MTS assay; format: functional
# ZR-75-1 [10] = assay: Ratio of vinblastine IC50 to compound IC50 for human ZR-75-1 cells by MTS assay; format: functional
# T47D [11] = assay: Ratio of vinblastine IC50 to compound IC50 for human T47D cells by MTS assay; format: functional
# [12] = Ratio of vinblastine IC50 to compound IC50 for human SW403 cells by MTS assay; format: functional
# MDA-MB-468 [13] = assay: Ratio of vinblastine IC50 to compound IC50 for human MDA-MB-468 cells by MTS assay; format: functional
# LS174T = assay: Ratio of vinblastine IC50 to compound IC50 for human LS 174T cells by MTS assay; format: functional
# [14] = Ratio of vinblastine IC50 to compound IC50 for human LNCaP-FGC cells by MTS assay; format: functional
# [15] = Ratio of vinblastine IC50 to compound IC50 for human KPL4 cells by MTS assay; format: functional
# HCT-116 [16] = assay: Ratio of vinblastine IC50 to compound IC50 for vinblastine-sensitive human HCT116 cells by MTS assay; format: functional
# HCC70 [17] = assay: Ratio of vinblastine IC50 to compound IC50 for human HCC70 cells by MTS assay; format: functional
# HCC1143 [18] = assay: Ratio of vinblastine IC50 to compound IC50 for human HCC1143 cells by MTS assay; format: functional
# NCI-H520 [19] = assay: Ratio of vinblastine IC50 to compound IC50 for human NCI-H520 cells by MTS assay; format: functional
# AU565 [20] = assay: Ratio of vinblastine IC50 to compound IC50 for human AU565 cells by MTS assay; format: functional
# HCT-116/VM46 [21] = assay: Growth inhibition of vinblastine-resistant human HCT116/VM46 cells overexpressing P-gp after 72 hrs by MTS assay; format: functional, cell-based; settings: HCT-116/VM46, 72 h
# PA-1 [22] = assay: Growth inhibition of human PA1 cells after 72 hrs by MTS assay; format: functional, cell-based; settings: PA-1, 72 h
# T47D [23] = assay: Growth inhibition of human T47D cells after 72 hrs by MTS assay; format: functional, cell-based
# ZR-75-1 [24] = assay: Growth inhibition of human ZR-75-1 cells after 72 hrs by MTS assay; format: functional, cell-based; settings: ZR-75-1, 72 h
# [25] = Growth inhibition of human SW403 cells after 72 hrs by MTS assay; format: functional, cell-based; settings: SW-403, 72 h
# MDA-MB-468 [26] = assay: Growth inhibition of human MDA-MB-468 cells after 72 hrs by MTS assay; format: functional, cell-based; settings: MDA-MB-468, 72 h
# MCF7 = assay: Growth inhibition of human MCF7 cells after 72 hrs by MTS assay; format: functional, cell-based; settings: MCF7, 72 h
# [27] = Growth inhibition of human LS 174T cells after 72 hrs by MTS assay; format: functional, cell-based; settings: LS174T
# [28] = Growth inhibition of human LNCaP-FGC cells after 72 hrs by MTS assay; format: functional, cell-based; settings: LNCaP-Clone-FGC
# [29] = Growth inhibition of human KPL4 cells after 72 hrs by MTS assay; format: functional, cell-based; settings: KPL4, 72 h
# HCC70 [30] = assay: Growth inhibition of human HCC70 cells after 72 hrs by MTS assay; format: functional, cell-based; settings: HCC70, 72 h
# HCT-116 [31] = assay: Growth inhibition of vinblastine-sensitive human HCT116 cells after 72 hrs by MTS assay; format: functional, cell-based; settings: HCT-116, 72 h
# HCC1143 [32] = assay: Growth inhibition of human HCC1143 cells after 72 hrs by MTS assay; format: functional, cell-based; settings: HCC1143, 72 h
# NCI-H520 [33] = assay: Growth inhibition of human NCI-H520 cells after 72 hrs by MTS assay; format: functional, cell-based; settings: NCI-H520, 72 h
# AU565 [34] = assay: Growth inhibition of human AU565 cells after 72 hrs by MTS assay; format: functional, cell-based; settings: AU565, 72 h
# HCT-116 [35] = assay: Ratio of IC50 for vinblastine-resistant human HCT116/VM46 cells overexpressing P-gp to IC50 for vinblastine-sensitive human HCT116 cells by MTS assay; format: functional
# Tubulin (Sus scrofa) = Tubulin (Sus scrofa) (UniProt P02554+P02550); assay: Displacement of [3H]-VBL from porcine tubulin after 60 mins relative to control; format: protein assay
# Tubulin (Sus scrofa), sequence (P02550 whole entry, looked up): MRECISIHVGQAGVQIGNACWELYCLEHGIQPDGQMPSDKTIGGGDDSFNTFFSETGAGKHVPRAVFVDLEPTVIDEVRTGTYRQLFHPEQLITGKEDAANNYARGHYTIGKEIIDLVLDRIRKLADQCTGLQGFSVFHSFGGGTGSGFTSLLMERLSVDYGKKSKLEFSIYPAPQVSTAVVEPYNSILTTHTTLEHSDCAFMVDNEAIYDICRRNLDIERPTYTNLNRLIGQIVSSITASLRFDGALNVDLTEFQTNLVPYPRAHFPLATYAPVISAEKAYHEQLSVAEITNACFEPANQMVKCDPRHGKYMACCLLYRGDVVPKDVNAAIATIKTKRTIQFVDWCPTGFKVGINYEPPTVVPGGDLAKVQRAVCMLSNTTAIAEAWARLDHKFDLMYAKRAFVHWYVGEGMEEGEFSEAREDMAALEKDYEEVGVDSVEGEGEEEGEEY
# Tubulin (Sus scrofa), sequence (P02554 whole entry, looked up): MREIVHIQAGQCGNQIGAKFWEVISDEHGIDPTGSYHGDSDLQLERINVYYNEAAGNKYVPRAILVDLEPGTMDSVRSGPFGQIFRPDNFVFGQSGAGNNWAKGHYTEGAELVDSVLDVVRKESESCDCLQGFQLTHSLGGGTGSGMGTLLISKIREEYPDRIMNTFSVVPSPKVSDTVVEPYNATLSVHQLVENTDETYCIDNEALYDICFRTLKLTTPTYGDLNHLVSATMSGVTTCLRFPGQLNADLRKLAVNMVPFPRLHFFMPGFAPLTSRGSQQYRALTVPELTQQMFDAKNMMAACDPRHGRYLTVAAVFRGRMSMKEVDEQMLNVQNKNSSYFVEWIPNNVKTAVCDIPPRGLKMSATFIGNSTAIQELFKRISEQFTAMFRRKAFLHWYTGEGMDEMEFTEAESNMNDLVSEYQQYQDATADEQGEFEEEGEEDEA
IC50 (HCT-116 [5]),IC50 (HCT-116/VM46 [6]),IC50 (L1210 [7]),Compound,Ratio IC50 (HCT-116 [1]),Ratio IC50 (HCT-116 [2]),Ratio IC50 (HCT-116/VM46 [3]),Ratio IC50 (L1210 [4]),Ratio IC50 (HCT-116/VM46 [8]),Ratio IC50 (PA-1 [9]),Ratio IC50 (ZR-75-1 [10]),Ratio IC50 (T47D [11]),Ratio IC50 [12],Ratio IC50 (MDA-MB-468 [13]),Ratio IC50 (LS174T),Ratio IC50 [14],Ratio IC50 [15],Ratio IC50 (HCT-116 [16]),Ratio IC50 (HCC70 [17]),Ratio IC50 (HCC1143 [18]),Ratio IC50 (NCI-H520 [19]),also measured
0.69 nM,8.7 nM,0.61 nM,CC[C@]1(NC(=O)N2Cc3ccc(OC)cc3C2)C[C@H]2CN(CCc3c([nH]c4ccccc34)[C@@](C(=O)OC)(c3cc4c(cc3OC)N(C)[C@H]3[C@@](O)(C(=O)OC)[C@H](OC(C)=O)[C@]5(CC)C=CCN6CC[C@]43[C@@H]65)C2)C1,13,10,80,10,–,–,–,–,–,–,–,–,–,–,–,–,–,–
–,–,40 nM,CC[C@]1(NC(N)=O)C[C@H]2CN(CCc3c([nH]c4ccccc34)[C@@](C(=O)OC)(c3cc4c(cc3OC)N(C)[C@H]3[C@@](O)(C(=O)OC)[C@H](OC(C)=O)[C@]5(CC)C=CCN6CC[C@]43[C@@H]65)C2)C1,–,–,–,–,–,–,–,–,–,–,–,–,–,–,–,–,–,–
–,–,5.3 nM,CC[C@]1(NC(=O)N2CCOCC2)C[C@H]2CN(CCc3c([nH]c4ccccc34)[C@@](C(=O)OC)(c3cc4c(cc3OC)N(C)[C@H]3[C@@](O)(C(=O)OC)[C@H](OC(C)=O)[C@]5(CC)C=CCN6CC[C@]43[C@@H]65)C2)C1,–,–,–,–,–,–,–,–,–,–,–,–,–,–,–,–,–,–
0.88 nM,50 nM,2.1 nM,CC[C@]1(NC(=O)N2CCSCC2)C[C@H]2CN(CCc3c([nH]c4ccccc34)[C@@](C(=O)OC)(c3cc4c(cc3OC)N(C)[C@H]3[C@@](O)(C(=O)OC)[C@H](OC(C)=O)[C@]5(CC)C=CCN6CC[C@]43[C@@H]65)C2)C1,–,–,–,–,–,–,–,–,–,–,–,–,–,–,–,–,–,–
0.56 nM,8.7 nM,0.62 nM,CC[C@]1(NC(=O)N2CCc3ccccc3C2)C[C@H]2CN(CCc3c([nH]c4ccccc34)[C@@](C(=O)OC)(c3cc4c(cc3OC)N(C)[C@H]3[C@@](O)(C(=O)OC)[C@H](OC(C)=O)[C@]5(CC)C=CCN6CC[C@]43[C@@H]65)C2)C1,13,10,80,10,10,10,10,10,10,10,10,10,10,10,10,10,10,Ratio IC50 (AU565 [20]): 10; IC50 (HCT-116/VM46 [21]): 6.6 nM; IC50 (PA-1 [22]): 0.19 nM; IC50 (T47D [23]): 0.55 nM; IC50 (ZR-75-1 [24]): 0.52 nM; IC50 [25]: 1.2 nM; IC50 (MDA-MB-468 [26]): 0.12 nM; IC50 (MCF7): 2.1 nM; IC50 [27]: 0.3 nM; IC50 [28]: 0.02 nM; IC50 [29]: 0.06 nM; IC50 (HCC70 [30]): 0.13 nM; IC50 (HCT-116 [31]): 0.26 nM; IC50 (HCC1143 [32]): 0.16 nM; IC50 (NCI-H520 [33]): 0.14 nM; IC50 (AU565 [34]): 0.13 nM
0.6 nM,7.5 nM,0.51 nM,CC[C@]1(NC(=O)N2Cc3ccccc3C2)C[C@H]2CN(CCc3c([nH]c4ccccc34)[C@@](C(=O)OC)(c3cc4c(cc3OC)N(C)[C@H]3[C@@](O)(C(=O)OC)[C@H](OC(C)=O)[C@]5(CC)C=CCN6CC[C@]43[C@@H]65)C2)C1,13,10,80,10,10,10,10,10,10,10,10,10,10,10,10,10,10,Ratio IC50 (HCT-116 [35]): 20; Ratio IC50 (AU565 [20]): 10; IC50 (HCT-116/VM46 [21]): 3.5 nM; IC50 (PA-1 [22]): 0.11 nM; IC50 (T47D [23]): 0.41 nM; IC50 (ZR-75-1 [24]): 0.45 nM; IC50 [25]: 0.45 nM; IC50 (MDA-MB-468 [26]): 0.39 nM; IC50 (MCF7): > 12.5 nM; IC50 [27]: 0.45 nM; IC50 [28]: 0.24 nM; IC50 [29]: 0.04 nM; IC50 (HCC70 [30]): 0.04 nM; IC50 (HCT-116 [31]): 0.16 nM; IC50 (HCC1143 [32]): 0.09 nM; IC50 (NCI-H520 [33]): 0.1 nM; IC50 (AU565 [34]): 0.11 nM; Activity (Tubulin (Sus scrofa)): 41.2%
